Consider 1 sequence from PMC7756666, “Non‐Stationary Complementary Non‐Uniform Sampling (NOSCO NUS) for Fast Acquisition of Serial 2D NMR Titration Data” (Angewandte Chemie (International Ed. in English), 2020).

pKd: −log10 of the molar value. Ends that are not written are not given here.

The target in the assay is T1, SH3 domain of α‐spectrin (Gallus gallus, UniProt P07751).
T1 construct: SH3 domain of α‐spectrin, has 60 residues
Nature of the assay: NMR titration (2D 1H-15N HSQC), p41 binding by SH3. The following applies: system as introduced in text; pH 3.5; 8 ligand-to-protein ratios; no spread given; read-out: KD (dissociation constant). An excerpt:
The critical information on molecular dissociation constants, K D, and chemical shift perturbation (CSP) amplitudes, Δv, can be derived by individually fitting the correlated signal frequencies, observed in the 2D protein NMR spectra of a titration series, to the equation [Eq. 1]:(1) νI=νI,0+f(x,KD)·ΔνI
where [Eq. 2](2) f(x,KD)=KD+(1+x)cP-(KD+(1+x)cP)^2-4cP2x/2cP
v I is the observed chemical shift (I=^15N or^1H ), v I,0 is the pertaining reference chemical shift in the absence of ligand; Δv I is the maximal CSP amplitude due to ligand binding; x=c L/ c P is the ligand to protein molar ratio; c P is the total protein concentration.
NMR frequency sampling in an indirect time dimension is a lengthy process (fundamental reasons described in SI). Here we propose a method for complementary non‐uniform sampling (NUS) of entire titration series of 2D ^1H‐^15N HSQC spectra within less time even than required for a single conventional spectrum. For this we sample the indirect t 1(^15N) dimension as in a standard NUS experiment, yet with complementary sampling schedules for the different titration points such that each ligand‐to‐protein ratio, x, is sampled for a unique set of t 1 times (Figure 1). A full grid of 256 t 1 increments in a titration series with 8 different x ratios would, thus, be sampled in 8 complementary schedules of 32 points. […]

T1 sequence (P07751 967-1026 limits assumed): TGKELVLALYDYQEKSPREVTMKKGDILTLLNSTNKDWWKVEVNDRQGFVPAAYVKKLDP

In the case of APSYSPPPPP [p41], the pKd (in general, −log10 of the Kd, conventionally taken in molar units) was 2.05.
